# System: Hirsutella rhossiliensis
# Experiment: Effect of nitrogen source on growth, sporulation and spore germination
# Settings: nitrogen source 0.3296 g/L nitrogen; isolate ATCC46487; 5 weeks
row,Compound,"Growth mm-in-diam, on agar [mm-in-diam]"
1,N[C@@H](CC(=O)O)C(=O)O [L-Aspartic acid],43.8
2,O=C(O)[C@@H]1CCCN1 [L-proline],47.2
3,O=[N+]([O-])[O-].[Na+] [NaNO3],39.2

# Same assay, conditions: nitrogen source 0.3296 g/L nitrogen; isolate JA16-1; 5 weeks
row,Compound,"Growth mm-in-diam, on agar [mm-in-diam]"
1,N[C@@H](CC(=O)O)C(=O)O [L-Aspartic acid],13.3
2,O=C(O)[C@@H]1CCCN1 [L-proline],17.0
3,O=[N+]([O-])[O-].[Na+] [NaNO3],15.3

# Same assay, conditions: nitrogen source 0.3296 g/L nitrogen; isolate OWVT-1; 5 weeks
row,Compound,"Growth mm-in-diam, on agar [mm-in-diam]"
1,Casein,23.0
2,N[C@@H](CC(=O)O)C(=O)O [L-Aspartic acid],16.8
3,O=C(O)[C@@H]1CCCN1 [L-proline],23.8
4,O=[N+]([O-])[O-].[Na+] [NaNO3],21.7

# Same assay, conditions: nitrogen source; isolate ATCC46487
row,Compound,"Spore germination %, on agar [%]"
1,Casein,96.7
2,N[C@@H](CC(=O)O)C(=O)O [L-Aspartic acid],93.3
3,O=C(O)[C@@H]1CCCN1 [L-proline],86.7
4,O=[N+]([O-])[O-].[Na+] [NaNO3],86.7

# Same assay, conditions: nitrogen source; isolate ATCC46487; 5 weeks
Compound,"Sporulation 10^3/cm^2, on agar",growth in liquit culture (visual rating)
O=[N+]([O-])[O-].[Na+] [NaNO3],10.0 10^3/cm^2,"IV (IV = the pellet diameter larger than 1 cm, but the total volume distribution less than 5 ml)"

# Same assay, conditions: nitrogen source; isolate JA16-1
row,Compound,"Spore germination %, on agar [%]"
1,Casein,90.0
2,N[C@@H](CC(=O)O)C(=O)O [L-Aspartic acid],90.0
3,O=C(O)[C@@H]1CCCN1 [L-proline],86.7
4,O=[N+]([O-])[O-].[Na+] [NaNO3],73.3

# Same assay, conditions: nitrogen source; isolate JA16-1; 5 weeks
Compound,growth in liquit culture (visual rating),"Sporulation 10^3/cm^2, on agar"
N[C@@H](CC(=O)O)C(=O)O [L-Aspartic acid],"IV (IV = the pellet diameter larger than 1 cm, but the total volume distribution less than 5 ml)",
O=[N+]([O-])[O-].[Na+] [NaNO3],I,6.4 10^3/cm^2

# Same assay, conditions: nitrogen source; isolate OWVT-1
row,Compound,"Spore germination %, on agar [%]"
1,Casein,44.4
2,N[C@@H](CC(=O)O)C(=O)O [L-Aspartic acid],53.3
3,O=C(O)[C@@H]1CCCN1 [L-proline],60.0
4,O=[N+]([O-])[O-].[Na+] [NaNO3],55.6

# Same assay, conditions: nitrogen source; isolate OWVT-1; 5 weeks
Compound,"Sporulation 10^3/cm^2, on agar",growth in liquit culture (visual rating)
Casein,43.6 10^3/cm^2,
N[C@@H](CC(=O)O)C(=O)O [L-Aspartic acid],,"III (III = hyphae growth or colonies form a pellet, less than 2.5 ml)"
O=C(O)[C@@H]1CCCN1 [L-proline],,"III (III = hyphae growth or colonies form a pellet, less than 2.5 ml)"
O=[N+]([O-])[O-].[Na+] [NaNO3],35.9 10^3/cm^2,

# System: Hirsutella rhossiliensis
# Experiment: Effect of carbon source on growth, sporulation and spore germination
# Settings: carbon source 4 g/liter carbon; isolate ATCC46487; 5 weeks
row,Compound,"Growth mm-in-diam, on agar [mm-in-diam]"
1,O=C[C@@H](O)[C@H](O)[C@H](O)CO [D-(−)-arabinose],18.0
2,Glycogen,46.8
3,O=C[C@H](O)[C@@H](O)[C@H](O)[C@H](O)CO [D-(+)-glucose],28.3
4,O.OC[C@H]1O[C@@H](O[C@H]2[C@H](O)[C@@H](O)[C@@H](O)O[C@@H]2CO)[C@H](O)[C@@H](O)[C@H]1O [a-lactose monohydrate],35.8
5,OC[C@H]1O[C@H](O[C@H]2O[C@H](CO)[C@@H](O)[C@H](O)[C@H]2O)[C@H](O)[C@@H](O)[C@@H]1O [D(+) trehalose],36.5

# Same assay, conditions: carbon source 4 g/liter carbon; isolate JA16-1; 5 weeks
row,Compound,"Growth mm-in-diam, on agar [mm-in-diam]"
1,O=C[C@@H](O)[C@H](O)[C@H](O)CO [D-(−)-arabinose],0.0
2,Glycogen,20.5
3,O=C[C@H](O)[C@@H](O)[C@H](O)[C@H](O)CO [D-(+)-glucose],6.5
4,O.OC[C@H]1O[C@@H](O[C@H]2[C@H](O)[C@@H](O)[C@@H](O)O[C@@H]2CO)[C@H](O)[C@@H](O)[C@H]1O [a-lactose monohydrate],15.8
5,OC[C@H]1O[C@H](O[C@H]2O[C@H](CO)[C@@H](O)[C@H](O)[C@H]2O)[C@H](O)[C@@H](O)[C@@H]1O [D(+) trehalose],18.3

# Same assay, conditions: carbon source 4 g/liter carbon; isolate OWVT-1; 5 weeks
row,Compound,"Growth mm-in-diam, on agar [mm-in-diam]"
1,O=C[C@@H](O)[C@H](O)[C@H](O)CO [D-(−)-arabinose],9.7
2,Glycogen,34.8
3,O=C[C@H](O)[C@@H](O)[C@H](O)[C@H](O)CO [D-(+)-glucose],8.0
4,O.OC[C@H]1O[C@@H](O[C@H]2[C@H](O)[C@@H](O)[C@@H](O)O[C@@H]2CO)[C@H](O)[C@@H](O)[C@H]1O [a-lactose monohydrate],9.8
5,OC[C@H]1O[C@H](O[C@H]2O[C@H](CO)[C@@H](O)[C@H](O)[C@H]2O)[C@H](O)[C@@H](O)[C@@H]1O [D(+) trehalose],30.2

# Same assay, conditions: carbon source; isolate ATCC46487; 5 weeks
Compound,"Sporulation 10^3/cm^2, on agar",growth in liquid culture (visual rating)
O=C[C@@H](O)[C@H](O)[C@H](O)CO [D-(−)-arabinose],22.3 10^3/cm^2,
Glycogen,77.5 10^3/cm^2,
O=C[C@H](O)[C@@H](O)[C@H](O)[C@H](O)CO [D-(+)-glucose],7.7 10^3/cm^2,I
O.OC[C@H]1O[C@@H](O[C@H]2[C@H](O)[C@@H](O)[C@@H](O)O[C@@H]2CO)[C@H](O)[C@@H](O)[C@H]1O [a-lactose monohydrate],2.4 10^3/cm^2,I
OC[C@H]1O[C@H](O[C@H]2O[C@H](CO)[C@@H](O)[C@H](O)[C@H]2O)[C@H](O)[C@@H](O)[C@@H]1O [D(+) trehalose],172.6 10^3/cm^2,

# Same assay, conditions: carbon source; isolate ATCC46487; after incubation for 24 hr
row,Compound,"Spore germination %, on agar [%]"
1,O=C[C@@H](O)[C@H](O)[C@H](O)CO [D-(−)-arabinose],48.9
2,Glycogen,72.2
3,O=C[C@H](O)[C@@H](O)[C@H](O)[C@H](O)CO [D-(+)-glucose],61.1
4,O.OC[C@H]1O[C@@H](O[C@H]2[C@H](O)[C@@H](O)[C@@H](O)O[C@@H]2CO)[C@H](O)[C@@H](O)[C@H]1O [a-lactose monohydrate],56.7
5,OC[C@H]1O[C@H](O[C@H]2O[C@H](CO)[C@@H](O)[C@H](O)[C@H]2O)[C@H](O)[C@@H](O)[C@@H]1O [D(+) trehalose],60.0

# Same assay, conditions: carbon source; isolate JA16-1; 5 weeks
Compound,"Sporulation 10^3/cm^2, on agar",growth in liquid culture (visual rating)
O=C[C@@H](O)[C@H](O)[C@H](O)CO [D-(−)-arabinose],27.0 10^3/cm^2,
Glycogen,12.4 10^3/cm^2,"IV (IV = the pellet diameter larger than 1 cm, but the total volume distribution less than 5 ml)"
O=C[C@H](O)[C@@H](O)[C@H](O)[C@H](O)CO [D-(+)-glucose],28.1 10^3/cm^2,
O.OC[C@H]1O[C@@H](O[C@H]2[C@H](O)[C@@H](O)[C@@H](O)O[C@@H]2CO)[C@H](O)[C@@H](O)[C@H]1O [a-lactose monohydrate],37.3 10^3/cm^2,I
OC[C@H]1O[C@H](O[C@H]2O[C@H](CO)[C@@H](O)[C@H](O)[C@H]2O)[C@H](O)[C@@H](O)[C@@H]1O [D(+) trehalose],5.2 10^3/cm^2,

# Same assay, conditions: carbon source; isolate JA16-1; after incubation for 24 hr
row,Compound,"Spore germination %, on agar [%]"
1,O=C[C@@H](O)[C@H](O)[C@H](O)CO [D-(−)-arabinose],32.2
2,Glycogen,77.8
3,O=C[C@H](O)[C@@H](O)[C@H](O)[C@H](O)CO [D-(+)-glucose],65.5
4,O.OC[C@H]1O[C@@H](O[C@H]2[C@H](O)[C@@H](O)[C@@H](O)O[C@@H]2CO)[C@H](O)[C@@H](O)[C@H]1O [a-lactose monohydrate],68.9
5,OC[C@H]1O[C@H](O[C@H]2O[C@H](CO)[C@@H](O)[C@H](O)[C@H]2O)[C@H](O)[C@@H](O)[C@@H]1O [D(+) trehalose],68.9

# Same assay, conditions: carbon source; isolate OWVT-1; 5 weeks
Compound,"Sporulation 10^3/cm^2, on agar",growth in liquid culture (visual rating)
O=C[C@@H](O)[C@H](O)[C@H](O)CO [D-(−)-arabinose],35.2 10^3/cm^2,
Glycogen,7.9 10^3/cm^2,"IV (IV = the pellet diameter larger than 1 cm, but the total volume distribution less than 5 ml)"
O=C[C@H](O)[C@@H](O)[C@H](O)[C@H](O)CO [D-(+)-glucose],30.7 10^3/cm^2,I
O.OC[C@H]1O[C@@H](O[C@H]2[C@H](O)[C@@H](O)[C@@H](O)O[C@@H]2CO)[C@H](O)[C@@H](O)[C@H]1O [a-lactose monohydrate],17.4 10^3/cm^2,I
OC[C@H]1O[C@H](O[C@H]2O[C@H](CO)[C@@H](O)[C@H](O)[C@H]2O)[C@H](O)[C@@H](O)[C@@H]1O [D(+) trehalose],49.2 10^3/cm^2,

# Same assay, conditions: carbon source; isolate OWVT-1; after incubation for 24 hr
row,Compound,"Spore germination %, on agar [%]"
1,O=C[C@@H](O)[C@H](O)[C@H](O)CO [D-(−)-arabinose],40.0
2,Glycogen,72.2
3,O=C[C@H](O)[C@@H](O)[C@H](O)[C@H](O)CO [D-(+)-glucose],56.7
4,O.OC[C@H]1O[C@@H](O[C@H]2[C@H](O)[C@@H](O)[C@@H](O)O[C@@H]2CO)[C@H](O)[C@@H](O)[C@H]1O [a-lactose monohydrate],42.2
5,OC[C@H]1O[C@H](O[C@H]2O[C@H](CO)[C@@H](O)[C@H](O)[C@H]2O)[C@H](O)[C@@H](O)[C@@H]1O [D(+) trehalose],62.2

# From patent US7384629B2, “Biological control of nematodes with Hirsutella minnesotensis” (Regents of the University of Minnesota, priority 2000, dated 2008)
